# Measured values taken from US20230121313A1 (priority 2019, published 2023).
# How the values were obtained:
# [1] = tested on: patients with treatment-resistant depression (TRD); assay: CGI-S, phase 2 dose-response study in TRD; assay type: in vivo, human
# Protocol: Overall illness severity was assessed on the Clinical Global Impression of Severity (CGI-S) scale (Guy, “ECDEU Assessment Manual for Psychopharmacology-Revised (DHEW Publ No ADM 76-338)”, Rockville, Md.: U.S. Department of Health, Education, and Welfare, Public Health Service, Alcohol, Drug Abuse, and Mental Health Administration, NIMH Psychopharmacology Research Branch, Division of Extramural Research Programs; 1976, pp 218-222). Participants assessed their severity of anxiety on the Generalized Anxiety Disorder 7-item (GADS-7) Scale (See, Tables 157 and 158). See, Spitzer, “A brief measure for assessing generalized anxiety disorder—the GAD-7”, Arch. Intern. Med., 2006, 166(10):1092-1097.
# [2] = tested on: adult subjects with TRD; conditions: in vivo
# Protocol: Blood pressure and pulse/heart rate measurements were assessed supine with a completely automated device. Manual techniques were used only if an automated device is not available. Blood pressure and pulse/heart rate measurements were preceded by at least 5 minutes of rest in a quiet setting without distractions (e.g., television, cell phones).
# Descriptive statistics of temperature, pulse/heart rate, respiratory rate, pulse oximetry, and blood pressure (systolic and diastolic) (supine) values and changes from baseline were summarized at each scheduled time point. The percentage of subjects with values beyond clinically important limits were summarized.
# [3] = Pharmacokinetics of intranasal esketamine 28, 56, 84 mg in healthy subjects (Example 9); conditions: for AUC(0-inf) / AUC(0-t) / Cmax / half-life / Tmax: both, human, plasma; for Tmax: healthy subjects
# Protocol: This was an open-label, single-center study. The subjects were healthy Caucasian men and women, 20 to 55 years of age, inclusive. […] The solution consisted of:
# Pharmacokinetic blood samples for measurement of esketamine and noresketamine concentrations in plasma were collected from predose until up to 24 hours after each intranasal esketamine regimen on Day 1 of each period.
# Blood samples (4 mL each) for determination of esketamine and noresketamine plasma concentrations were collected into the appropriate collection tube (e.g., Vacutainer®) at timepoints 0.00, 0.12, 0.20, 0.37, 0.53, 0.67, 0.83, 1.00, 1.25, 1.50, 2.00, 3.00, 4.00, 6.00, 9.00, 12.00, 18.00, and 24.00 h. The total amount of blood to be drawn for clinical laboratory tests and PK evaluations is approximately 327 mL.
# Plasma samples were analyzed for esketamine and noresketamine concentrations using the validated, specific and sensitive liquid chromatography coupled to tandem mass spectrometry (LC-MS/MS) achiral method of Example 8.
# Serial PK blood samples (4 mL each) were collected for a 24-hour period from each subject (Periods 1, 2, and 3).
# The following key parameters of esketamine and noresketamine in plasma were calculated using noncompartmental methods and actual sampling times: Cmax, tmax, AUClast, AUC∞, t1/2,λ, and λz.
# [4] = tested on: subjects with MDD at imminent risk for suicide; assay: Beck Scale for Suicidal Ideation (BSS), Study […]2001; assay type: in vivo, human; conditions: 84 mg; for BSS total score change, Diff. of LS Means (minus Placebo): ANCOVA LOCF; for BSS total score, change from baseline, mean / BSS total score, change from baseline, median / BSS total score, mean / BSS total score, median: LOCF, N 34
# Source text: • a. Changes from baseline to Day 2 and Day 25 for the MADRS total score • b. Changes from baseline to Day 1 4-hours postdose, Day 2 and Day 25 for the MADRS Suicide Item • c. Changes from baseline to Day 1 4-hours postdose, Day 2, and Day 25 for the clinical global judgment of suicide risk from the Suicide Ideation and Behavior Assessment Tool (SIBAT) • d. Sustained response (Onset of Clinical Response) defined as at least 50% reduction from baseline in MADRS total score with onset on Day 1 that is maintained through the end of the double-blind phase (Day 25) • e. Changes from baseline to Day 1 4-hours postdose, Day 2, and Day 25 for the Beck Scale for Suicidal Ideation (BSS) • f. Changes from baseline to Day 1 4-hours postdose and Day 25 for the Beck Hopelessness Scale
# The BSS is a 21-item self-reported instrument to detect and measure the severity of suicidal ideation in adults and adolescents aged 17 years and older. The BSS total score represents the severity of suicide ideation, and it is calculated by summing the ratings of the first 19 items; the total score ranges from 0 to 38, with a higher score representing greater suicide ideation. Increasing scores reflect increases in suicidal risk.
# [5] = tested on: patients with treatment-resistant depression (TRD); assay: CADSS, phase 2 dose-response study in TRD; assay type: in vivo, human
# Protocol: Adverse events were monitored throughout the study. Other safety assessments (i.e., laboratory tests, vital signs, physical examination) were performed at pre-specified time points. Vital signs, the Clinician Administered Dissociative States Scale (CADSS; Bremner, “Measurement of dissociative states with the clinician-administered dissociative states scale (CADSS)”, J. Traumatic Stress, 1998, 11(1):125-136), and the 4-item positive symptom subscale from the Brief Psychiatric Rating Scale (BPRS; Overall, “The Brief Psychiatric Rating Scale. Psychological Reports”, 1962, 10:799-812) were assessed pre-dose, at 40 minutes, and 2 hours post-dose.
# [6] = tested on: glutamate NMDA receptor; conditions: cited from earlier work
structure (smiles),measurement,setting,value
"CN[C@]1(c2ccccc2Cl)CCCCC1=O [esketamine, (S)-2-(2-chlorophenyl)-2-(methylamino)cyclohexanone]",CGI-S Median (Range),"[1]; Period 1, 28 mg","4.0 (3, 5)"
same,CGI-S Median Change (Range) from baseline to end point,"[1]; Period 1, 28 mg","−1.0 (−2, 1)"
same,CGI-S Median (Range),"[1]; Period 1, 56 mg","4.0 (1, 5)"
same,CGI-S Median Change (Range) from baseline to end point,"[1]; Period 1, 56 mg","−1.0 (−3, 0)"
same,CGI-S Median (Range),"[1]; Period 1, 84 mg","4.0 (1, 6)"
same,CGI-S Median Change (Range) from baseline to end point,"[1]; Period 1, 84 mg","−0.5 (−4, 0)"
same,CGI-S Median (Range),"[1]; Period 2, 28 mg","4.0 (3, 5)"
same,CGI-S Median Change (Range) from baseline to end point,"[1]; Period 2, 28 mg","−1.0 (−1, 0)"
same,CGI-S Median (Range),"[1]; Period 2, 56 mg","5.0 (4, 6)"
same,CGI-S Median Change (Range) from baseline to end point,"[1]; Period 2, 56 mg","−1.0 (−2, 0)"
same,CGI-S Median (Range),"[1]; Period 2, 84 mg","4.0 (3, 5)"
same,CGI-S Median Change (Range) from baseline to end point,"[1]; Period 2, 84 mg","−1.0 (−2, 0)"
same,Maximum mean increase in diastolic BP (across all dosing days),[2],8.1
same,Transient blood pressure increases: returned to normal range at,[2],90 min
same,Transient blood pressure increases: time of peak post dose,[2],approximately 40 minutes
same,AUC(0-inf),"[3]; inhaled or intranasal, 28 mg",136 ng·h/mL
same,AUC(0-t),"[3]; inhaled or intranasal, 28 mg",128 ng·h/mL
same,Cmax,"[3]; inhaled or intranasal, 28 mg",49.7 ng/mL
same,half-life,"[3]; inhaled or intranasal, 28 mg",7.25 h
same,Tmax,"[3]; inhaled or intranasal, 28 mg, tmax, esketamine in plasma, single intranasal 28 mg (Treatment A), median",0.67 h
same,AUC(0-inf),"[3]; inhaled or intranasal, 56 mg",222 ng·h/mL
same,AUC(0-t),"[3]; inhaled or intranasal, 56 mg",216 ng·h/mL
same,Cmax,"[3]; inhaled or intranasal, 56 mg",74.1 ng/mL
same,half-life,"[3]; inhaled or intranasal, 56 mg",7.25 h
same,Tmax,"[3]; inhaled or intranasal, 56 mg, tmax, esketamine in plasma, single intranasal 56 mg (Treatment B), median",0.67 h
same,AUC(0-inf),"[3]; inhaled or intranasal, 84 mg",329 ng·h/mL
same,AUC(0-t),"[3]; inhaled or intranasal, 84 mg",310 ng·h/mL
same,Cmax,"[3]; inhaled or intranasal, 84 mg",103 ng/mL
same,half-life,"[3]; inhaled or intranasal, 84 mg",7.11 h
same,Tmax,"[3]; inhaled or intranasal, 84 mg, Median tmax of esketamine, range across regimens, intranasal 28, 56, 84 mg",0.67 to 0.83 h
same,Tmax,"[3]; inhaled or intranasal, 84 mg, tmax, esketamine in plasma, single intranasal 84 mg (Treatment C), median",0.83 h
same,half-life,"[3]; other: intranasal, 84 mg",7.11 to 7.25 h
same,AUC (AUClast and AUC∞) variability,[3]; esketamine in plasma,25.0% to 30.4
same,Cmax variability (percent coefficient of variation) across the 3 treatment groups,[3]; esketamine in plasma,35.7% to 36.7
same,"BSS total score change, Diff. of LS Means (minus Placebo)",[4]; Day 1 (DB): 4 H,−2.3
same,"BSS total score, change from baseline, mean",[4]; Day 1 (DB): 4 H,−10.2
same,"BSS total score, change from baseline, median",[4]; Day 1 (DB): 4 H,−8.0
same,"BSS total score, mean",[4]; Day 1 (DB): 4 H,13.8
same,"BSS total score, median",[4]; Day 1 (DB): 4 H,16.5
same,"BSS total score change, Diff. of LS Means (minus Placebo)",[4]; Day 2 (DB),−1.9
same,"BSS total score, change from baseline, mean",[4]; Day 2 (DB),−12.9
same,"BSS total score, change from baseline, median",[4]; Day 2 (DB),−11.5
same,"BSS total score, mean",[4]; Day 2 (DB),11.1
same,"BSS total score, median",[4]; Day 2 (DB),13.0
same,"BSS total score change, Diff. of LS Means (minus Placebo)",[4]; End Point (DB),−1.7
same,"BSS total score, change from baseline, mean",[4]; End Point (DB),−19.3
same,"BSS total score, change from baseline, median",[4]; End Point (DB),−21.0
same,"BSS total score, mean",[4]; End Point (DB),4.7
same,"BSS total score, median",[4]; End Point (DB),0.0
same,BSS total score change vs placebo,"[4]; […]2001, Day 1: 4 hours postdose, Day 2 (DB), End Point (DB)",no statistically significant differences
same,CADSS perceptual changes/dissociative symptoms resolved by,[5],≤ 2 h
same,CADSS perceptual changes/dissociative symptoms: time of peak,[5],30 to 40 min
same,Affinity for the glutamate NMDA receptor in vitro relative to R-ketamine,[6],3 to 4 fold
